# Tests used:
# [1] = Oral bioavailability and pharmacokinetics in mice (plasma, mass spectroscopy); conditions: for AUC(0-inf.) (calc.) / AUC(0-t) (obs.) / Cmax (obs.) / Tmax (obs.) / Vd / t½α / t½β: WFI; for Bioavailability F (AUC(0-inf.)): 30 mg/kg po vs iv
# Experimental: Mice received 30 mg/kg of 1 or 6 intravenously or orally. For each time point blood of 3 mice has been collected, plasma prepared and the concentration of 1 or 6 has been determined by mass spectroscopy. […] Bioavailability and the area under the curve (Auc(0-t) [μg h/L]=AUC) have been determined.
# [2] = system: human cervix carcinoma xenograft KB-3-1; assay: Antitumor activity in human cervix carcinoma xenograft model (KB-3-1) in vivo; set-up: species or system nude mice; conditions: for Tumor inhibition / Tumor weight: day 30; for Tumor weight: median
# Experimental: Tumor bearing mice were randomized on day 8 after KB-3-1 tumor cell inoculation and were distributed to treatment groups of n=7 animals per group. Treatment was started on day 8. The animals were treated orally once daily for 5 consecutive days with 1 or 6. Dosages included 50 and 25% of the Maximum Tolerable Doses (MTD's). Control animals received the vehicle (water). On day 30, the primary tumors were explanted and the tumor weights were determined.
# [3] = mice, 30 mg/kg iv, experiment P06.0069
# [4] = mice, 30 mg/kg po, experiment P06.0069
# [5] = 25% MTD, 100 mg/kg/day orally once daily for 5 days
# [6] = 50% MTD, 200 mg/kg/day orally once daily for 5 days
# [7] = 25% MTD, 100 mg/kg/day orally once daily for 5 days from day 8
# [8] = 50% MTD, 200 mg/kg/day orally once daily for 5 days from day 8
# [9] = mice, 30 mg/kg iv, experiment P06.0068
# [10] = mice, 30 mg/kg po, experiment P06.0068
molecule,measurement,setting,value
[2-Chloro-9-(2′-deoxy-2′-fluoro-β-D-arabinofuranosyl)adenine]-5′-phosphoric acid-(2-decyloxy-3-dodecyloxy)propyl ester [Compound 1],AUC(0-inf.) (calc.),[1]; [3],320.025 µg·h/mL
same,AUC(0-t) (obs.),[1]; [3],315.695 µg·h/mL
same,Cmax (obs.),[1]; [3],486156 ng/mL
same,Tmax (obs.),[1]; [3],0.02 h
same,Bioavailability F (AUC(0-inf.)),"[1]; mice, experiment P06.0069",28.5%
same,AUC(0-inf.) (calc.),[1]; [4],91.31 µg·h/mL
same,AUC(0-t) (obs.),[1]; [4],88.927 µg·h/mL
same,Cmax (obs.),[1]; [4],13256 ng/mL
same,Tmax (obs.),[1]; [4],2.0 h
"CCCCCCCCCCCCOCC(COP(=O)(O)OC[C@H]1O[C@@H](n2cnc3c(N)nc(Cl)nc32)C(F)[C@H]1O)OCCCCCCCCCC (stereo partly drawn) [Compound 1, [2-Chloro-9-(2′-deoxy-2′-fluoro-β-D-arabinofuranosyl)adenine]-5′-phosphoric acid-(2-decyloxy-3-dodecyloxy)propyl ester]",Tumor size versus control animals,[2]; 18 days after termination of treatment (day 30),significantly (p<0.01) smaller tumors than control animals
same,Tumor inhibition,[2]; [5],43%
same,Tumor inhibition,[2]; [6],93%
same,Tumor weight,[2]; [7],1.60 g
same,Tumor weight,[2]; [8],0.19 g
same,Bioavailability F (AUC(0-inf.)),"[1]; mice, experiment P06.0069",28.5%
same,AUC,"[1]; mouse, plasma, po, 30 mg/kg",88.9 µg·h/mL
CCCCCCCCCCCCSCC(COP(=O)(O)OC[C@H]1O[C@@H](n2cnc3c(N)nc(Cl)nc32)[C@@H](F)[C@@H]1O)OCCCCCCCCCC (stereo partly shown) [Compound 6],Tumor inhibition,[2]; [5],31%
same,Tumor inhibition,[2]; [6],74%
same,Tumor weight,[2]; [7],1.91 g
same,Tumor weight,[2]; [8],0.73 g
same,AUC(0-inf.) (calc.),[1]; [9],841.7 µg·h/mL
same,AUC(0-t) (obs.),[1]; [9],823.424 µg·h/mL
same,Cmax (obs.),[1]; [9],673387 ng/mL
same,Tmax (obs.),[1]; [9],0.0 h
same,Vd,[1]; [9],0.26 L/kg
same,t½α,[1]; [9],0.4 h
same,t½β,[1]; [9],5.1 h
same,AUC after oral application,"[1]; mice, 30 mg/kg orally, AUC(0-t)",213 µg·h/mL
same,Bioavailability F (AUC(0-inf.)),"[1]; mice, experiment P06.0068",28.5%
same,AUC(0-inf.) (calc.),[1]; [10],239.878 µg·h/mL
same,AUC(0-t) (obs.),[1]; [10],236.496 µg·h/mL
same,Cmax (obs.),[1]; [10],19517 ng/mL
same,Tmax (obs.),[1]; [10],4.0 h
same,Vd,[1]; [10],1.30 L/kg
same,t½α,[1]; [10],0.5 h
same,t½β,[1]; [10],7.2 h
same,AUC(0-inf.) (calc.),[1]; [4],225.914 µg·h/mL
same,AUC(0-t) (obs.),[1]; [4],212.685 µg·h/mL
same,Cmax (obs.),[1]; [4],23571 ng/mL
same,Tmax (obs.),[1]; [4],3.0 h
same,Vd,[1]; [4],1.10 L/kg
same,t½α,[1]; [4],0.9 h
same,t½β,[1]; [4],5.7 h

# Source: patent publication US20100249055A1, “CLOFARABINE PHOSPHOLIPID DERIVATIVES” (HEIDELBERG PHARMA AG, priority 2007, published 2010)
